Numbers after ± are expanded uncertainties.
Test: xn = mol fraction of the nth substance listed
Details: Liquid

CCOS(=O)(=O)[O-].CCn1cc[n+](C)c1 [1-ethyl-3-methylimidazolium ethyl sulfate] + CCO
mass density [kg/m3]
Details | 100 kPa | 2500 kPa | 5000 kPa | 10000 kPa | 15000 kPa | 20000 kPa | 25000 kPa | 30000 kPa | 35000 kPa
283.15 K, x1 = 0.05056 | 868.1 ± 0.64 | 870 ± 0.69 | 871.83 ± 0.74 | 875.33 ± 0.84 | 878.74 ± 0.93 | 882.02 ± 1 | 885.17 ± 1.1 | 888.22 ± 1.2 | 891.19 ± 1.3
283.15 K, x1 = 0.103 | 925.77 ± 0.56 | 927.45 ± 0.58 | 929.13 ± 0.6 | 932.41 ± 0.65 | 935.57 ± 0.68 | 938.63 ± 0.72 | 941.59 ± 0.76 | 944.47 ± 0.79 | 947.26 ± 0.81
283.15 K, x1 = 0.1247 | 946.96 ± 0.53 | 948.54 ± 0.54 | 950.16 ± 0.55 | 953.34 ± 0.58 | 956.4 ± 0.6 | 959.38 ± 0.62 | 962.25 ± 0.63 | 965.06 ± 0.64 | 967.8 ± 0.65
283.15 K, x1 = 0.2126 | 1015.49 ± 0.47 | 1016.98 ± 0.48 | 1018.48 ± 0.48 | 1021.37 ± 0.5 | 1024.17 ± 0.52 | 1026.89 ± 0.55 | 1029.52 ± 0.58 | 1032.11 ± 0.61 | 1034.62 ± 0.66
283.15 K, x1 = 0.2919 | 1063.41 ± 0.52 | 1064.67 ± 0.54 | 1066.03 ± 0.57 | 1068.69 ± 0.63 | 1071.27 ± 0.69 | 1073.82 ± 0.77 | 1076.29 ± 0.85 | 1078.72 ± 0.94 | 1081.08 ± 1.1
283.15 K, x1 = 0.3185 | 1076.89 ± 0.53 | 1078.19 ± 0.56 | 1079.51 ± 0.59 | 1082.11 ± 0.66 | 1084.66 ± 0.75 | 1087.15 ± 0.84 | 1089.57 ± 0.93 | 1091.95 ± 1.1 | 1094.27 ± 1.2
283.15 K, x1 = 0.4198 | 1120.15 ± 0.6 | 1121.36 ± 0.64 | 1122.61 ± 0.7 | 1125.05 ± 0.82 | 1127.44 ± 0.95 | 1129.77 ± 1.1 | 1132.05 ± 1.3 | 1134.29 ± 1.4 | 1136.48 ± 1.6
283.15 K, x1 = 0.4847 | 1142.52 ± 0.63 | 1143.68 ± 0.69 | 1144.88 ± 0.76 | 1147.23 ± 0.9 | 1149.51 ± 1.1 | 1151.78 ± 1.3 | 1153.99 ± 1.4 | 1156.16 ± 1.6 | 1158.29 ± 1.9
283.15 K, x1 = 0.5713 | 1167.9 ± 0.68 | 1169.02 ± 0.75 | 1170.16 ± 0.83 | 1172.41 ± 1 | 1174.61 ± 1.2 | 1176.78 ± 1.4 | 1178.91 ± 1.6 | 1181.01 ± 1.9 | 1183.08 ± 2.1
283.15 K, x1 = 0.6827 | 1194.68 ± 0.72 | 1195.76 ± 0.81 | 1196.85 ± 0.9 | 1199 ± 1.1 | 1201.12 ± 1.4 | 1203.21 ± 1.6 | 1205.24 ± 1.9 | 1207.27 ± 2.1 | 1209.25 ± 2.4
283.15 K, x1 = 0.7919 | 1216.13 ± 0.76 | 1217.15 ± 0.86 | 1218.19 ± 0.97 | 1220.26 ± 1.2 | 1222.32 ± 1.5 | 1224.34 ± 1.8 | 1226.31 ± 2 | 1228.28 ± 2.3 | 1230.19 ± 2.6
283.15 K, x1 = 0.9317 | 1237.97 ± 0.81 | 1238.92 ± 0.92 | 1239.94 ± 1.1 | 1241.93 ± 1.3 | 1243.92 ± 1.6 | 1245.88 ± 1.9 | 1247.81 ± 2.2 | 1249.69 ± 2.5 | 1251.56 ± 2.8
293.15 K, x1 = 0.05056 | 860.03 ± 0.66 | 861.91 ± 0.71 | 863.83 ± 0.76 | 867.52 ± 0.86 | 871.06 ± 0.97 | 874.47 ± 1.1 | 877.74 ± 1.2 | 880.91 ± 1.3 | 883.98 ± 1.4
293.15 K, x1 = 0.103 | 917.84 ± 0.57 | 919.6 ± 0.6 | 921.37 ± 0.62 | 924.78 ± 0.67 | 928.08 ± 0.72 | 931.25 ± 0.76 | 934.32 ± 0.8 | 937.28 ± 0.84 | 940.18 ± 0.87
293.15 K, x1 = 0.1247 | 939.1 ± 0.5 | 940.76 ± 0.55 | 942.46 ± 0.57 | 945.77 ± 0.6 | 948.96 ± 0.63 | 952.04 ± 0.65 | 955.03 ± 0.67 | 957.93 ± 0.69 | 960.74 ± 0.7
293.15 K, x1 = 0.2126 | 1007.62 ± 0.47 | 1009.27 ± 0.47 | 1010.81 ± 0.47 | 1013.8 ± 0.5 | 1016.71 ± 0.5 | 1019.53 ± 0.52 | 1022.26 ± 0.54 | 1024.93 ± 0.57 | 1027.53 ± 0.61
293.15 K, x1 = 0.2919 | 1055.3 ± 0.5 | 1056.61 ± 0.53 | 1058.04 ± 0.55 | 1060.8 ± 0.6 | 1063.5 ± 0.7 | 1066.12 ± 0.73 | 1068.67 ± 0.8 | 1071.18 ± 0.88 | 1073.62 ± 0.97
293.15 K, x1 = 0.3185 | 1069.32 ± 0.52 | 1070.62 ± 0.55 | 1071.98 ± 0.58 | 1074.68 ± 0.64 | 1077.32 ± 0.71 | 1079.89 ± 0.8 | 1082.37 ± 0.89 | 1084.82 ± 0.98 | 1087.22 ± 1.1
293.15 K, x1 = 0.4198 | 1112.7 ± 0.6 | 1113.96 ± 0.63 | 1115.24 ± 0.68 | 1117.75 ± 0.79 | 1120.22 ± 0.91 | 1122.63 ± 1.1 | 1124.97 ± 1.2 | 1127.27 ± 1.4 | 1129.54 ± 1.6
293.15 K, x1 = 0.4847 | 1135.13 ± 0.62 | 1136.31 ± 0.68 | 1137.55 ± 0.74 | 1139.97 ± 0.87 | 1142.34 ± 1 | 1144.68 ± 1.2 | 1146.94 ± 1.4 | 1149.19 ± 1.6 | 1151.37 ± 1.8
293.15 K, x1 = 0.5713 | 1160.59 ± 0.66 | 1161.75 ± 0.73 | 1162.92 ± 0.81 | 1165.25 ± 0.97 | 1167.52 ± 1.2 | 1169.75 ± 1.4 | 1171.93 ± 1.6 | 1174.07 ± 1.8 | 1176.19 ± 2
293.15 K, x1 = 0.6827 | 1187.41 ± 0.71 | 1188.51 ± 0.79 | 1189.64 ± 0.88 | 1191.86 ± 1.1 | 1194.04 ± 1.3 | 1196.18 ± 1.6 | 1198.27 ± 1.8 | 1200.33 ± 2.1 | 1202.37 ± 2.3
293.15 K, x1 = 0.7919 | 1208.95 ± 0.75 | 1210 ± 1 | 1211.08 ± 0.95 | 1213.21 ± 1.2 | 1215.31 ± 1.5 | 1217.38 ± 1.7 | 1219.4 ± 2 | 1221.4 ± 2.3 | 1223.38 ± 2.5
293.15 K, x1 = 0.9317 | 1230.93 ± 0.8 | 1231.9 ± 0.9 | 1232.97 ± 1 | 1235.05 ± 1.3 | 1237.08 ± 1.6 | 1239.09 ± 1.9 | 1241.05 ± 2.2 | 1242.97 ± 2.5 | 1244.9 ± 2.8

From the NIST ThermoML archive (doi:10.1021/je900414p)
